# Assay results from patent publication US8802597B2, “Herbicidal pyrimidines” (E I du Pont de Nemours and Company, priority 2003, dated 2014).
# Columns and labels:
# Test in all cases: Test A pre/postemergence
# Type in all cases: in vivo
# [1] = test system: barnyardgrass (Echinochloa crus-galli)
# Method in brief: (§1)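 Seeds in loam–sand blend received preemergence directed soil spray and, concurrently, postemergence application (plants 2–10 cm, 1–2-leaf stage) of compound in non-phytotoxic solvent with surfactant. After about ten days in greenhouse, injury rated visually versus untreated controls, 0 (no effect) to 100 (complete control).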
# [2] = test system: crabgrass (Digitaria sanguinalis)
# Method in brief: as §1
# [3] = test system: giant foxtail (Setaria faberi)
# Method in brief: as §1
# [4] = test system: morningglory (Ipomoea spp.)
# Method in brief: as §1
# [5] = test system: redroot pigweed (Amaranthus retroflexus)
# Method in brief: as §1
# [6] = test system: velvetleaf (Abutilon theophrasti)
# Method in brief: as §1
# [7] = Postemergence, 125 g ai/ha, 0 to 100 scale (0 no effect, 100 complete control)
# [8] = Postemergence, 500 g ai/ha, 0 to 100 scale (0 no effect, 100 complete control)
# [9] = Preemergence, 125 g ai/ha, 0 to 100 scale where 0 is no effect and 100 is complete control, approximately ten days
# [10] = Preemergence, 500 g ai/ha, 0 to 100 scale where 0 is no effect and 100 is complete control, approximately ten days
# [11] = Postemergence, 250 g ai/ha, 0 to 100 scale (0 no effect, 100 complete control)
# [12] = Postemergence, 1000 g ai/ha, 0 to 100 scale (0 no effect, 100 complete control)
# [13] = Preemergence, 250 g ai/ha, 0 to 100 scale where 0 is no effect and 100 is complete control, approximately ten days
# [14] = Preemergence, 1000 g ai/ha, 0 to 100 scale (0 no effect, 100 complete control)
structure (smiles),measurement,setting,value
COC(=O)c1nc(-c2ccc(C)c(F)c2)nc(N)c1Cl [Compound 86],"Plant response rating, Barnyardgrass",[1]; [7],10
same,"Plant response rating, Barnyardgrass",[1]; [8],30
same,"Plant response rating, Barnyardgrass",[1]; [9],0
same,"Plant response rating, Barnyardgrass",[1]; [10],0
same,"Plant response rating, Crabgrass",[2]; [7],0
same,"Plant response rating, Crabgrass",[2]; [8],0
same,"Plant response rating, Crabgrass",[2]; [9],0
same,"Plant response rating, Crabgrass",[2]; [10],0
same,"Plant response rating, Foxtail, Giant",[3]; [7],0
same,"Plant response rating, Foxtail, Giant",[3]; [8],0
same,"Plant response rating, Foxtail, Giant",[3]; [9],0
same,"Plant response rating, Foxtail, Giant",[3]; [10],0
same,"Plant response rating, Morningglory",[4]; [7],0
same,"Plant response rating, Morningglory",[4]; [8],20
same,"Plant response rating, Morningglory",[4]; [9],0
same,"Plant response rating, Morningglory",[4]; [10],0
same,"Plant response rating, Pigweed",[5]; [7],20
same,"Plant response rating, Pigweed",[5]; [8],50
same,"Plant response rating, Pigweed",[5]; [9],0
same,"Plant response rating, Pigweed",[5]; [10],5
same,"Plant response rating, Velvetleaf",[6]; [7],70
same,"Plant response rating, Velvetleaf",[6]; [8],85
same,"Plant response rating, Velvetleaf",[6]; [9],0
same,"Plant response rating, Velvetleaf",[6]; [10],10
CCOC(OCC)c1nc(-c2ccc(I)cc2)nc(N)c1Cl [Compound 138],"Plant response rating, Barnyardgrass",[1]; [7],0
same,"Plant response rating, Barnyardgrass",[1]; [8],0
same,"Plant response rating, Barnyardgrass",[1]; [9],0
same,"Plant response rating, Barnyardgrass",[1]; [10],0
same,"Plant response rating, Crabgrass",[2]; [7],0
same,"Plant response rating, Crabgrass",[2]; [8],0
same,"Plant response rating, Crabgrass",[2]; [9],0
same,"Plant response rating, Crabgrass",[2]; [10],0
same,"Plant response rating, Foxtail, Giant",[3]; [7],0
same,"Plant response rating, Foxtail, Giant",[3]; [8],0
same,"Plant response rating, Foxtail, Giant",[3]; [9],0
same,"Plant response rating, Foxtail, Giant",[3]; [10],0
same,"Plant response rating, Morningglory",[4]; [7],0
same,"Plant response rating, Morningglory",[4]; [8],20
same,"Plant response rating, Morningglory",[4]; [9],0
same,"Plant response rating, Morningglory",[4]; [10],0
same,"Plant response rating, Pigweed",[5]; [7],20
same,"Plant response rating, Pigweed",[5]; [8],35
same,"Plant response rating, Pigweed",[5]; [9],0
same,"Plant response rating, Pigweed",[5]; [10],0
same,"Plant response rating, Velvetleaf",[6]; [7],60
same,"Plant response rating, Velvetleaf",[6]; [8],70
same,"Plant response rating, Velvetleaf",[6]; [9],0
same,"Plant response rating, Velvetleaf",[6]; [10],0
CC(C)OC(=O)c1nc(-c2ccc(Cl)cc2)nc(N)c1Cl [Compound 102],"Plant response rating, Barnyardgrass",[1]; [7],0
same,"Plant response rating, Barnyardgrass",[1]; [8],0
same,"Plant response rating, Barnyardgrass",[1]; [9],0
same,"Plant response rating, Barnyardgrass",[1]; [10],0
same,"Plant response rating, Crabgrass",[2]; [7],10
same,"Plant response rating, Crabgrass",[2]; [8],10
same,"Plant response rating, Crabgrass",[2]; [9],0
same,"Plant response rating, Crabgrass",[2]; [10],0
same,"Plant response rating, Foxtail, Giant",[3]; [7],0
same,"Plant response rating, Foxtail, Giant",[3]; [8],0
same,"Plant response rating, Foxtail, Giant",[3]; [9],0
same,"Plant response rating, Foxtail, Giant",[3]; [10],0
same,"Plant response rating, Morningglory",[4]; [7],0
same,"Plant response rating, Morningglory",[4]; [8],15
same,"Plant response rating, Morningglory",[4]; [9],0
same,"Plant response rating, Morningglory",[4]; [10],0
same,"Plant response rating, Pigweed",[5]; [7],50
same,"Plant response rating, Pigweed",[5]; [8],65
same,"Plant response rating, Pigweed",[5]; [9],10
same,"Plant response rating, Pigweed",[5]; [10],15
same,"Plant response rating, Velvetleaf",[6]; [7],45
same,"Plant response rating, Velvetleaf",[6]; [8],70
same,"Plant response rating, Velvetleaf",[6]; [9],10
same,"Plant response rating, Velvetleaf",[6]; [10],20
NC(=O)c1nc(-c2ccc(Br)cc2)nc(N)c1Br [Compound 130],"Plant response rating, Barnyardgrass",[1]; [7],0
same,"Plant response rating, Barnyardgrass",[1]; [8],0
same,"Plant response rating, Barnyardgrass",[1]; [9],0
same,"Plant response rating, Barnyardgrass",[1]; [10],0
same,"Plant response rating, Crabgrass",[2]; [7],0
same,"Plant response rating, Crabgrass",[2]; [8],0
same,"Plant response rating, Crabgrass",[2]; [9],0
same,"Plant response rating, Crabgrass",[2]; [10],0
same,"Plant response rating, Foxtail, Giant",[3]; [7],0
same,"Plant response rating, Foxtail, Giant",[3]; [8],0
same,"Plant response rating, Foxtail, Giant",[3]; [9],0
same,"Plant response rating, Foxtail, Giant",[3]; [10],0
same,"Plant response rating, Morningglory",[4]; [7],0
same,"Plant response rating, Morningglory",[4]; [8],0
same,"Plant response rating, Morningglory",[4]; [9],0
same,"Plant response rating, Morningglory",[4]; [10],0
same,"Plant response rating, Pigweed",[5]; [7],0
same,"Plant response rating, Pigweed",[5]; [8],15
same,"Plant response rating, Pigweed",[5]; [9],0
same,"Plant response rating, Pigweed",[5]; [10],0
same,"Plant response rating, Velvetleaf",[6]; [7],0
same,"Plant response rating, Velvetleaf",[6]; [8],30
same,"Plant response rating, Velvetleaf",[6]; [9],0
same,"Plant response rating, Velvetleaf",[6]; [10],0
CCOC(=O)COc1nc(-c2ccc(Cl)cc2)nc(N)c1Cl [Compound 114],"Plant response rating, Barnyardgrass",[1]; [7],0
same,"Plant response rating, Barnyardgrass",[1]; [8],0
same,"Plant response rating, Barnyardgrass",[1]; [9],0
same,"Plant response rating, Barnyardgrass",[1]; [10],0
same,"Plant response rating, Crabgrass",[2]; [7],0
same,"Plant response rating, Crabgrass",[2]; [8],0
same,"Plant response rating, Crabgrass",[2]; [9],0
same,"Plant response rating, Crabgrass",[2]; [10],0
same,"Plant response rating, Foxtail, Giant",[3]; [7],0
same,"Plant response rating, Foxtail, Giant",[3]; [8],0
same,"Plant response rating, Foxtail, Giant",[3]; [9],0
same,"Plant response rating, Foxtail, Giant",[3]; [10],0
same,"Plant response rating, Morningglory",[4]; [7],40
same,"Plant response rating, Morningglory",[4]; [8],55
same,"Plant response rating, Morningglory",[4]; [9],0
same,"Plant response rating, Morningglory",[4]; [10],0
same,"Plant response rating, Pigweed",[5]; [7],45
same,"Plant response rating, Pigweed",[5]; [8],55
same,"Plant response rating, Pigweed",[5]; [9],0
same,"Plant response rating, Pigweed",[5]; [10],0
same,"Plant response rating, Velvetleaf",[6]; [7],0
same,"Plant response rating, Velvetleaf",[6]; [8],5
same,"Plant response rating, Velvetleaf",[6]; [9],0
same,"Plant response rating, Velvetleaf",[6]; [10],0
COC(=O)c1nc(-c2ccc(F)cc2)nc(N)c1Cl [Compound 43],"Plant response rating, Barnyardgrass",[1]; [11],10
same,"Plant response rating, Barnyardgrass",[1]; [12],20
same,"Plant response rating, Barnyardgrass",[1]; [13],0
same,"Plant response rating, Barnyardgrass",[1]; [14],10
same,"Plant response rating, Crabgrass",[2]; [11],10
same,"Plant response rating, Crabgrass",[2]; [12],30
same,"Plant response rating, Crabgrass",[2]; [13],0
same,"Plant response rating, Crabgrass",[2]; [14],10
same,"Plant response rating, Foxtail, Giant",[3]; [11],10
same,"Plant response rating, Foxtail, Giant",[3]; [12],10
same,"Plant response rating, Foxtail, Giant",[3]; [13],0
same,"Plant response rating, Foxtail, Giant",[3]; [14],10
same,"Plant response rating, Morningglory",[4]; [11],20
same,"Plant response rating, Morningglory",[4]; [12],45
same,"Plant response rating, Morningglory",[4]; [13],0
same,"Plant response rating, Morningglory",[4]; [14],45
same,"Plant response rating, Pigweed",[5]; [11],60
same,"Plant response rating, Pigweed",[5]; [12],85
same,"Plant response rating, Pigweed",[5]; [13],0
same,"Plant response rating, Pigweed",[5]; [14],75
same,"Plant response rating, Velvetleaf",[6]; [11],50
same,"Plant response rating, Velvetleaf",[6]; [12],50
same,"Plant response rating, Velvetleaf",[6]; [13],0
same,"Plant response rating, Velvetleaf",[6]; [14],20
Nc1nc(C2CC2)nc(C(=O)OCCCO)c1Cl [Compound 143],"Plant response rating, Barnyardgrass",[1]; [7],55
same,"Plant response rating, Barnyardgrass",[1]; [8],75
same,"Plant response rating, Barnyardgrass",[1]; [9],65
same,"Plant response rating, Barnyardgrass",[1]; [10],85
same,"Plant response rating, Crabgrass",[2]; [7],5
same,"Plant response rating, Crabgrass",[2]; [8],60
same,"Plant response rating, Crabgrass",[2]; [9],70
same,"Plant response rating, Crabgrass",[2]; [10],95
same,"Plant response rating, Foxtail, Giant",[3]; [7],25
same,"Plant response rating, Foxtail, Giant",[3]; [8],80
same,"Plant response rating, Foxtail, Giant",[3]; [9],35
same,"Plant response rating, Foxtail, Giant",[3]; [10],75
same,"Plant response rating, Morningglory",[4]; [7],90
same,"Plant response rating, Morningglory",[4]; [8],90
same,"Plant response rating, Morningglory",[4]; [9],90
same,"Plant response rating, Morningglory",[4]; [10],100
same,"Plant response rating, Pigweed",[5]; [7],70
same,"Plant response rating, Pigweed",[5]; [8],90
same,"Plant response rating, Pigweed",[5]; [9],65
same,"Plant response rating, Pigweed",[5]; [10],95
same,"Plant response rating, Velvetleaf",[6]; [7],75
same,"Plant response rating, Velvetleaf",[6]; [8],95
same,"Plant response rating, Velvetleaf",[6]; [9],90
same,"Plant response rating, Velvetleaf",[6]; [10],95
